What was measured:
[1] = test system: proteasome ChT-like activity in RPMI-8226 cells; experiment: Cell-based high-throughput screen of proteasome ChT-like activity (LLVY-R110); parameters: species or system human; settings: 3 µmol/L, 21 hours, then LLVY-R110 18 hours
E.G7-Ova cells = experiment: Quantitation of […]–MHC-I complex by flow cytometry; assay type: cell-based, mouse
RPMI-8226 cells = experiment: Myeloma MHC-I immunopeptidome analysis by MS; assay type: cell-based, human; settings: BTZ, 18 hours
RPMI8226 cells [2] = experiment: Aggresome formation (Proteostat kit, flow cytometry); assay type: cell-based, human; settings: 16 h
RPMI8226 cells [3] = experiment: Autophagosome formation (Cyto-ID kit, flow cytometry); assay type: cell-based, human; settings: 16 h
SIRT2 = molecular target: T1, SIRT2 (Homo sapiens, UniProt Q8IXJ6); experiment: In vitro biochemical activity assay, SIRT2; settings: 10-dose, 3-fold serial dilution; fluorogenic peptide p53 residues 379-382 and NAD
T1 construct: purchased Reaction Biology (Malvern, PA)
T1 sequence (Q8IXJ6 1-389): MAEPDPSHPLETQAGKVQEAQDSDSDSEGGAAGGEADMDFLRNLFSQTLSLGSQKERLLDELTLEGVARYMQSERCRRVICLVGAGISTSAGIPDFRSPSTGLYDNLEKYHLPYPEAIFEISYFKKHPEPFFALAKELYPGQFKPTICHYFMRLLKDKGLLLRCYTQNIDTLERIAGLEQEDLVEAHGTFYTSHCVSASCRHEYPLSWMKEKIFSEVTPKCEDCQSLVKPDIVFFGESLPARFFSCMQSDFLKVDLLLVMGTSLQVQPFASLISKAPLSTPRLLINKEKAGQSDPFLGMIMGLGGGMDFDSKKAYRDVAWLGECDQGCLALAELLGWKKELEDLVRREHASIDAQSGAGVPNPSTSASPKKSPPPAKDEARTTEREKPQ

IC50 (SIRT2)	SMILES	Fold-Decrease of proteasome ChT-like activity in the HTS [1]	SIINFEKL–MHC-I complex presentation (in words) (E.G7-Ova cells)	global peak intensity of peptides (in words) (RPMI-8226 cells)	number of peptides decreased by at least 20-fold (RPMI-8226 cells)	number of peptides with 2-fold or greater decrease (RPMI-8226 cells)	formation of aggresomes (RPMI8226 cells [2])	formation of autophagosomes (RPMI8226 cells [3])
	CC(C)C[C@H](NC(=O)[C@H](Cc1ccccc1)NC(=O)c1cnccn1)B(O)O [Bortezomib]	4 fold	reduced	slightly decreased	seven	1,707 peptides	increased	increased
24.3 µM	Cc1ccc(C(=O)Nc2ccc(S(=O)(=O)O)c3cc(S(=O)(=O)O)cc(S(=O)(=O)O)c23)cc1NC(=O)c1cccc(NC(=O)Nc2cccc(C(=O)Nc3cc(C(=O)Nc4ccc(S(=O)(=O)O)c5cc(S(=O)(=O)O)cc(S(=O)(=O)O)c45)ccc3C)c2)c1 [Suramin]							

— article PMC11188874, “HDAC6 Inhibition Releases HR23B to Activate Proteasomes, Expand the Tumor Immunopeptidome and Amplify T-cell Antimyeloma Activity” (Cancer Research Communications, 2024)
